Measurements: patent publication EP2818471A1, “Nitrogen bicyclic compounds as inhibitors for Scyl1 and Grk5” (Max-Planck-Gesellschaft zur Förderung der Wissenschaften …, priority 2013, dated 2014)

Legend:
[1] = system: beta-TC6 cell system; assay: Comparison of insulin release with commercially available inhibitors, mouse/rat insulin ELISA; format: cell-based; conditions: 5µM, 2 h, DMSO = 0, Table 9
Protocol: Based on literature references, several commercially available inhibitors were compared with compounds according to the invention. […] Cells were cultured for 24 h before treated with the inventive compounds and control inhibitors for 2 h at 37 °C and 5 % (v/v) CO2. Insulin in the supernatant was detected by mouse/rat insulin ELISA.

[2] = system: beta-TC6; assay: MTT cytotoxicity assay (cell viability and proliferation); format: cell-based, mouse; conditions: beta-TC6, 72 h treatment, concentrations up to 10 µM
Protocol: Using a MTT approach, we determined the effect on cell viability and proliferation of beta-TC6 and C2C12 cells to display potential cytotoxicity of the compounds according to the invention in vitro after a 72 h treatment.
For MTT (3-(4,5-dimethylthiazol-2-yl)-2,5-diphenyl tetrazolium bromide) transformation, 1/5 of total volume of a 5 mg/mL MTT stock solution was added to the cells as well as control wells and incubated at 37 °C, 5 % CO2 (v/v) for 1 h. Then 1/2 of total volume of MTT-stop solution was added and plates were incubated overnight in the dark at 25 °C. The optical density (OD) was measured using a multiwell spectrophotometer at a wavelength of 570 nm.

[3] = system: beta-TC6 cells; assay: Insulin release in low glucose medium, rat/mouse insulin ELISA; format: cell-based; conditions: low glucose 1.125 mM (20 mg/dL), 2 h, relative to DMSO control; Example 6, Figure 5
Protocol: In order to measure the insulin released upon compound treatment beta-TC6 insulinoma (mouse) and RIN-T2B-5AH (rat islet tumor subclone) cells were washed and incubated for 2 h in high (4.5 g/L) or low (1.125 g/L) glucose media at 37 °C. After incubation, the supernatant of the beta-TC6 insulinoma cells was diluted 1:20, whereas the supernatants of the RIN-T2B-5AH were diluted 1:10. The insulin release was measured with rat/mouse insulin ELISA (Merck Millipore Darmstadt, Cat. # EZRMI-13K) by following the manufacture's protocol. The enzyme activity of the horseradish peroxidase of the immobilized biotinylated antibodies was monitored spectrophotometrically by the increased absorbency at 490 nm, and corrected by the absorbency at 610 nm.
Hypoglycemia can cause impairment of cognitive function, motoric control or even consciousness. […] Therefore, we verified the glucose dependent insulin release in beta-TC6 cells using media with 1.125 mM (20 mg/dL) glucose. Cells were cultured for 24 h in a 96-well plate, washed with PBS and then appropriate media was replaced for 2 h at 37°C and 5 % (v/v) CO2. […] The enzyme activity of the horseradish peroxidase of the immobilized biotinylated antibodies was monitored spectrophotometrically by the increased absorbency at 490 nm, and corrected by the absorbency at 610 nm. […]

Question: CCN(CC)CCNC(=O)c1c(C)[nH]c(/C=C2\C(=O)Nc3ccc(F)cc32)c1C [Sunitinib, reference compound] was tested. Which “Insulin Release [%]” value ([1]; listed as Sutent) did it give?
Answer: 93.35%

Question: What about the activation at 5 µM ([1]; Mus musculus, Beta-TC6) of the same compound?
Answer: 93.3 ± 14.4%

Question: And the toxic effect [2]?
Answer: toxic in lower concentrations

Question: And the insulin release [3]?
Answer: 0.77 ± 0.03
